Counter-ions that a name gives are not always drawn.
Target: T1, Androgen Receptor (Homo sapiens, UniProt P10275, T878A)
T1 construct: the AR gene was modified, using CRISPR/Cas9 editing, so the expressed AR protein included an 11 amino acid HiBiT tag; endogenous in cells; host or cells: clonal LnCaP-derived line, AR gene edited by CRISPR/Cas9
Assay: Androgen Receptor Degradation Assay (Nano-Glo HiBiT)
Type: cell-based
Conditions: LNCaP, 18 h, HiBiT-tagged AR in human LnCaP cells, read-out: mean asymptote max
In short: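 LnCaP cells with CRISPR-knocked-in N-terminal HiBiT-tagged AR (10,000/well) treated 18 h at 37 °C with PROTACs over 11 threefold concentrations; lytic HiBiT luminescence normalised to DMSO (0%) and cell-free (100%) controls. Relative DC50 = 4-parameter fit inflection; absolute DC50 = 50% degradation interpolation; Dmax = maximum observed degradation.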

T1 sequence (P10275 whole entry T878A): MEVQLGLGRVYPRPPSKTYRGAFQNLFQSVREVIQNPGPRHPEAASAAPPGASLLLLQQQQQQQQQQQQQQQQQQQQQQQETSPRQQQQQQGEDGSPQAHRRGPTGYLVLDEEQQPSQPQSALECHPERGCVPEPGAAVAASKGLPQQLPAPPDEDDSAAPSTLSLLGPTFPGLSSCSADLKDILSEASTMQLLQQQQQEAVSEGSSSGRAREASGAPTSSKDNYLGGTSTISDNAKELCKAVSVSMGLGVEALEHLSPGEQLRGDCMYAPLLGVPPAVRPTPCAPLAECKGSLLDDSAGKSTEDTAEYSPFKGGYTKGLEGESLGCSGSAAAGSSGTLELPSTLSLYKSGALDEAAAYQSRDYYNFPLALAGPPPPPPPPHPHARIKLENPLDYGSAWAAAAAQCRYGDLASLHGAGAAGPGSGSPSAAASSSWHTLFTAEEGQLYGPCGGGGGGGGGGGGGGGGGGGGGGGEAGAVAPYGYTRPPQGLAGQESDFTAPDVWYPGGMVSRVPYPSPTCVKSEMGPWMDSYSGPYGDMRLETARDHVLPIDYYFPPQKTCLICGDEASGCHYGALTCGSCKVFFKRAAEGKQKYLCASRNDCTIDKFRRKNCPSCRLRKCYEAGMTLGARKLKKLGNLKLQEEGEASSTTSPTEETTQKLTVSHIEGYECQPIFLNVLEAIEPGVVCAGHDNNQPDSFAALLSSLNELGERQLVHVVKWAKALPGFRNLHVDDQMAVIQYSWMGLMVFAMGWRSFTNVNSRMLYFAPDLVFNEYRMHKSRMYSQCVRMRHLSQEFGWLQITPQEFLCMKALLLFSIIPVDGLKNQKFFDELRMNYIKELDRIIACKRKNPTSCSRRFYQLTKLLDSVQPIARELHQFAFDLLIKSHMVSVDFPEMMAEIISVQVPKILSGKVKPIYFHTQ
T1 sequence (Q96SW2 whole entry partner): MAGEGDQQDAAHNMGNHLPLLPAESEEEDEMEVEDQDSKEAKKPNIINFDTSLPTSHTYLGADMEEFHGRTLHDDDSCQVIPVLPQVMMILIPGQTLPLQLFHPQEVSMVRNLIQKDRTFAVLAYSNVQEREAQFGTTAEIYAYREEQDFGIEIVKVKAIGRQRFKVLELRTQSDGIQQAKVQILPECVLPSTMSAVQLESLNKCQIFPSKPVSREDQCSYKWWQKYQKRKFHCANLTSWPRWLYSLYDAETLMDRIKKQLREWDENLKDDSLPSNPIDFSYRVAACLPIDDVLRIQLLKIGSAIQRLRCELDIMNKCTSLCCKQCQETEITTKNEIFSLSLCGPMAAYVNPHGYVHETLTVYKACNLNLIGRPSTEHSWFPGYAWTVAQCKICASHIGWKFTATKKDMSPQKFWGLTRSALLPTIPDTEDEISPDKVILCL
T1 sequence (Q16531 whole entry partner): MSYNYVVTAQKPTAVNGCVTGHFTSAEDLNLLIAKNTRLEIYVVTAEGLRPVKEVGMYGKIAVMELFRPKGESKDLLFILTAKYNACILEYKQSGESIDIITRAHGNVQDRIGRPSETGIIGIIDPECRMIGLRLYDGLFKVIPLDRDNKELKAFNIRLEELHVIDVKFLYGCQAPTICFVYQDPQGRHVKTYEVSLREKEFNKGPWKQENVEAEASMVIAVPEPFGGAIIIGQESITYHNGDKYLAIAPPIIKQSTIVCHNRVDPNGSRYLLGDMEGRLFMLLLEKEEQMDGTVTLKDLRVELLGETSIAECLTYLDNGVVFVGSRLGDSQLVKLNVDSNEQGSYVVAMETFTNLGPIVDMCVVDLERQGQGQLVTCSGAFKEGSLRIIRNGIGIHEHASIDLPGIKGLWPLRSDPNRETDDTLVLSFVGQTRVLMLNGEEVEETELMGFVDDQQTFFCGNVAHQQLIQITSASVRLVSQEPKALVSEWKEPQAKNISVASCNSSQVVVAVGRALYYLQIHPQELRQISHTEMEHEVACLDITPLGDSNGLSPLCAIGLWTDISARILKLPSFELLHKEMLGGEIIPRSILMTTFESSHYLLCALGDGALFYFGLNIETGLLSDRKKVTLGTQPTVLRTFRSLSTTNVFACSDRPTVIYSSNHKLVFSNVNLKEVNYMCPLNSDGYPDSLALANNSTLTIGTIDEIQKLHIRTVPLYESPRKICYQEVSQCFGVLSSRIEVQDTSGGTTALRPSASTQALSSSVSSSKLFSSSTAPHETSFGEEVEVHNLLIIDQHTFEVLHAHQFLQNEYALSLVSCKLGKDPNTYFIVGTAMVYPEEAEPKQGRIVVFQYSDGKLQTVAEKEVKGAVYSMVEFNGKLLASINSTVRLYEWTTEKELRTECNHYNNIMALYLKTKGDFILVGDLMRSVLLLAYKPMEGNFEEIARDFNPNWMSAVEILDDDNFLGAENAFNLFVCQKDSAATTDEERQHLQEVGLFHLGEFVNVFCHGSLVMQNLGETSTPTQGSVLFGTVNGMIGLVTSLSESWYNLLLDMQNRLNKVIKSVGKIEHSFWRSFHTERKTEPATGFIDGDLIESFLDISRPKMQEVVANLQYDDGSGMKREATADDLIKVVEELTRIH

| Dmax [%] | SMILES |
| --- | --- |
| ≥ 50 | N#Cc1ccc(O[C@H]2CC[C@H](NC(=O)c3ccc(N4CCC(CN5CCC(n6ccc7c(N8CCC(=O)NC8=O)cccc76)C(F)(F)C5)CC4)nn3)CC2)cc1Cl (single isomer, unassigned) [EAR162, N-((1r,4r)-4-(3-Chloro-4-cyanophenoxy)cyclohexyl)-6-(4-((4-(4-(2,4-dioxotetrahydropyrimidin-1(2H)-yl)-1H-indol-1-yl)-3,3-difluoropiperidin-1-yl)methyl)piperidin-1-yl)pyridazine-3-carboxamide] |
| ≥ 50 | N#Cc1ccc(O[C@H]2CC[C@H](NC(=O)c3ccc(N4CCCC(CN5CCC(n6ccc7c(N8CCC(=O)NC8=O)cccc76)CC5)C4)nn3)CC2)cc1Cl (mixture of isomers) [EAR73, rac-N-((1r,4r)-4-(3-Chloro-4-cyanophenoxy)cyclohexyl)-6-(3-((4-(4-(2,4-dioxotetrahydropyrimidin-1(2H)-yl)-1H-indol-1-yl)piperidin-1-yl)methyl)piperidin-1-yl)pyridazine-3-carboxamide] |
| ≥ 50 | CC1(C)[C@H](NC(=O)c2ccc(N3CCC(CN4CCC(n5ncc6c(N7CCC(=O)NC7=O)cccc65)CC4)CC3)nn2)C(C)(C)[C@H]1Oc1cnc(C#N)c(Cl)c1 [EAR249, N-((1r,3r)-3-((5-Chloro-6-cyanopyridin-3-yl)oxy)-2,2,4,4-tetramethylcyclobutyl)-6-(4-((4-(4-(2,4-dioxotetrahydropyrimidin-1(2H)-yl)-1H-indazol-1-yl)piperidin-1-yl)methyl)piperidin-1-yl)pyridazine-3-carboxamide hydrochloride] |

Target: T2, Full length Cereblon protein (6His tev Cereblon/6His tev DDB1ΔBPB) (Homo sapiens, UniProt Q96SW2)
T2 construct: Full length Cereblon protein (6His tev Cereblon/6His tev DDB1ΔBPB) was expressed and purified from E. coli; made in house; host or cells: E. coli
Assay: Cereblon Binding Assay (TR-FRET)
Conditions: 5 nM protein, 50 nM Alexa647-lenalidomide ligand, read-out: Mean pIC50 (converted)
Protocol: Full length Cereblon protein (6His tev Cereblon/6His tev DDB1ΔBPB) was expressed and purified from E. coli to monitor compound binding. […] A Thermo Scientific Multidrop Combi was used to dispense 5 μL of 10 nM protein in assay buffer of 50 mM
HEPES, 150 mM NaCl, 5% glycerol, 1 mM DTT and 1 mM CHAPS, pH 7.4, in the presence of 100 nM fluorescent ligand (Final assay concentrations of 5 nM protein and 50 nM ligand). After equilibrating for 15 min in the dark at room temperature a 5 μL addition was made of 2 nM europium chelate labelled anti-6His antibody (Perkin Elmer, W1024, AD0111) in assay buffer (1 nM FAC). […] TR-FRET ratio data was normalised to high (DMSO) and low (reaction in the absence of protein) controls and pIC50 values determined for each of the compounds tested by fitting the fluorescence ratio data to a four parameter model:
[formula] • where ‘a’ is the minimum, ‘b’ is the maximum, ‘c’ is the pIC50 and ‘d’ is the Hill slope.

T2 sequence (Q96SW2 whole entry, stated change not applied): as the sequence (Q96SW2 whole entry partner) above

| IC50 [nM] | SMILES |
| --- | --- |
| 20 | Cc1ccc(N2CCC(=O)NC2=O)c2ccn(C)c12 [ECB49, 1-(1,7-Dimethyl-1H-indol-4-yl)dihydropyrimidine-2,4(1H,3H)-dione] |
| 380 | O=C1CCN(c2ccnc3c2cnn3C2CCNCC2)C(=O)N1 [ECB19, 1-(1-(piperidin-4-yl)-1H-pyrazolo[3,4-b]pyridin-4-yl)dihydropyrimidine-2,4(1H,3H)-dione] |
| 25.1 | O=C1CCN(c2cncc3c2ccn3C2CCNCC2)C(=O)N1 [ECB6, 1-(1-(piperidin-4-yl)-1H-pyrrolo[2,3-c]pyridin-4-yl)dihydropyrimidine-2,4(1H,3H)-dione] |
| 25.1 | CCn1ccc2c(N3CCC(=O)NC3=O)cncc21 [ECB51, 1-(1-Ethyl-1H-pyrrolo[2,3-c]pyridin-4-yl)dihydropyrimidine-2,4(1H,3H)-dione] |
| 229 | O=C1CCN(c2nccc3c2ccn3C2CCNCC2)C(=O)N1 [ECB25, 1-(1-(piperidin-4-yl)-1H-pyrrolo[3,2-c]pyridin-4-yl)dihydropyrimidine-2,4(1H,3H)-dione] |
| 25.1 | CC(C)n1ccc2c(N3CCC(=O)NC3=O)cc(C(=O)N(C)C3CCNCC3)cc21 [ECB15, 4-(2,4-Dioxotetrahydropyrimidin-1(2H)-yl)-1-isopropyl-N-methyl-N-(piperidin-4-yl)-1H-indole-6-carboxamide] |
| ≤ 1000 | N#Cc1ccc(O[C@H]2CC[C@H](NC(=O)c3ccc(N4CCC(CN5CCC(n6ccc7c(N8CCC(=O)NC8=O)cccc76)C(F)(F)C5)CC4)nn3)CC2)cc1Cl (single isomer, unassigned) [EAR162, N-((1r,4r)-4-(3-Chloro-4-cyanophenoxy)cyclohexyl)-6-(4-((4-(4-(2,4-dioxotetrahydropyrimidin-1(2H)-yl)-1H-indol-1-yl)-3,3-difluoropiperidin-1-yl)methyl)piperidin-1-yl)pyridazine-3-carboxamide] |
| 7.94 | O=C1CCN(c2cc(Cl)cc3c2ccn3C2CCNCC2)C(=O)N1 [ECB9, 1-(6-Chloro-1-(piperidin-4-yl)-1H-indol-4-yl)dihydropyrimidine-2,4(1H,3H)-dione] |
| 24 | CCn1ccc2c(N3CCC(=O)NC3=O)cccc21 [ECB50, 1-(1-Ethyl-1H-indol-4-yl)dihydropyrimidine-2,4(1H,3H)-dione] |
| 200 | O=C1CCN(c2cc(F)cc3c2cnn3C2CCNCC2)C(=O)N1 [ECB10, 1-(6-Fluoro-1-(piperidin-4-yl)-1H-indazol-4-yl)dihydropyrimidine-2,4(1H,3H)-dione] |
| 309 | Cn1ncc2c(N3CCC(=O)NC3=O)cccc21 [ECB46, 1-(1-Methyl-1H-indazol-4-yl)dihydropyrimidine-2,4(1H,3H)-dione] |
| 575 | Cn1ccc2c(N3CCC(=O)NC3=O)nccc21 [ECB47, 1-(1-Methyl-1H-pyrrolo[3,2-c]pyridin-4-yl)dihydropyrimidine-2,4(1H,3H)-dione] |
| 10 | O=C1CCN(c2cccc3c2cnn3C2CCNCC2)C(=O)N1 [ECB18, 1-(1-(Piperidin-4-yl)-1H-indazol-4-yl)dihydropyrimidine-2,4(1H,3H)-dione] |
| 316 | O=C1CCN(c2ncnc3c2ccn3C2CCNCC2)C(=O)N1 [ECB17, 1-(7-(piperidin-4-yl)-7H-pyrrolo[2,3-d]pyrimidin-4-yl)dihydropyrimidine-2,4(1H,3H)-dione] |
| 55 | O=C1CCN(c2cc(C(F)(F)F)cc3c2ccn3C2CCNCC2)C(=O)N1 [ECB37, 1-(1-(piperidin-4-yl)-6-(trifluoromethyl)-1H-indol-4-yl)dihydropyrimidine-2,4(1H,3H)-dione] |
| 120 | O=C1CCN(c2cccc3c2ccn3C[C@]2(F)CCCNC2)C(=O)N1 [ECB29, (S)-1-(1-((3-fluoropiperidin-3-yl)methyl)-1H-indol-4-yl)dihydropyrimidine-2,4(1H,3H)-dione] |
| 31.6 | CC(C)n1ccc2c(N3CCC(=O)NC3=O)cc(C(=O)N(C)CC3CCNCC3)cc21 [ECB16, 4-(2,4-Dioxotetrahydropyrimidin-1(2H)-yl)-1-isopropyl-N-methyl-N-(piperidin-4-ylmethyl)-1H-indole-6-carboxamide] |
| 33.1 | O=C1CCN(c2cc(F)cc3c2ccn3C2CCNCC2)C(=O)N1 [ECB44, 1-(6-Fluoro-1-(piperidin-4-yl)-1H-indol-4-yl)dihydropyrimidine-2,4(1H,3H)-dione] |
| 251 | O=C1CCN(c2cncc3c2cnn3C2CCNCC2)C(=O)N1 [ECB8, 1-(1-(Piperidin-4-yl)-1H-pyrazolo[3,4-c]pyridin-4-yl)dihydropyrimidine-2,4(1H,3H)-dione] |
| 100 | Cn1ccc2c(N3CCC(=O)NC3=O)cccc21 [ECB45, 1-(1-Methyl-1H-indol-4-yl)dihydropyrimidine-2,4(1H,3H)-dione] |
| 79.4 | O=C1CCN(c2nccc3c2cnn3C2CCNCC2)C(=O)N1 [ECB7, 1-(1-(piperidin-4-yl)-1H-pyrazolo[4,3-c]pyridin-4-yl)dihydropyrimidine-2,4(1H,3H)-dione] |
| 35.5 | COCCn1ccc2c(N3CCC(=O)NC3=O)cccc21 [ECB48, 1-(1-(2-Methoxyethyl)-1H-indol-4-yl)dihydropyrimidine-2,4(1H,3H)-dione] |
| ≤ 1000 | N#Cc1ccc(O[C@H]2CC[C@H](NC(=O)c3ccc(N4CCCC(CN5CCC(n6ccc7c(N8CCC(=O)NC8=O)cccc76)CC5)C4)nn3)CC2)cc1Cl (mixture of isomers) [EAR73, rac-N-((1r,4r)-4-(3-Chloro-4-cyanophenoxy)cyclohexyl)-6-(3-((4-(4-(2,4-dioxotetrahydropyrimidin-1(2H)-yl)-1H-indol-1-yl)piperidin-1-yl)methyl)piperidin-1-yl)pyridazine-3-carboxamide] |
| 245 | O=C1CCN(c2cc(C(F)(F)F)cc3c2cnn3C2CCNCC2)C(=O)N1 [ECB30, 1-(1-(piperidin-4-yl)-6-(trifluoromethyl)-1H-indazol-4-yl)dihydropyrimidine-2,4(1H,3H)-dione] |
| 2.51 | CC(C)n1ccc2c(N3CCC(=O)NC3=O)cc(C(=O)N3CCNCC3)cc21 [ECB11, 1-(1-isopropyl-6-(piperazine-1-carbonyl)-1H-indol-4-yl)dihydropyrimidine-2,4(1H,3H)-dione] |
| ≤ 1000 | CC1(C)[C@H](NC(=O)c2ccc(N3CCC(CN4CCC(n5ncc6c(N7CCC(=O)NC7=O)cccc65)CC4)CC3)nn2)C(C)(C)[C@H]1Oc1cnc(C#N)c(Cl)c1 [EAR249, N-((1r,3r)-3-((5-Chloro-6-cyanopyridin-3-yl)oxy)-2,2,4,4-tetramethylcyclobutyl)-6-(4-((4-(4-(2,4-dioxotetrahydropyrimidin-1(2H)-yl)-1H-indazol-1-yl)piperidin-1-yl)methyl)piperidin-1-yl)pyridazine-3-carboxamide hydrochloride] |

Source: patent US20250205344A1, “2,4-DIOXOTETRAHYDROPYRIMIDINYL DERATIVES AS DEGRONS IN PROTACS” (GLAXOSMITHKLINE INTELLECTUAL PROPERTY DEVELOPMENT LIMITED, priority 2022, published 2025)
